The text below walks through data of patent publication US20220152033A1, “COMPOSITIONS AND METHODS FOR DEEP DERMAL DRUG DELIVERY” (ARCUTIS BIOTHERAPEUTICS, INC., priority 2020, published 2022).

Data set [1] in a line: Particle size distribution of SHR0302 by laser diffraction (Malvern, Hydro MV). Format: physicochemical. Particulars: SHR0302 used in Example 1; wet dispersion in ethyl acetate; FIG. 1. An excerpt:
In the pharmaceutical compositions of the present invention, the active ingredient is present as small particles. Particle size of the drug can be assessed using laser diffraction methods. Laser diffraction is recognized by standards and guidance agencies including ISO and ASTM and is widely used to determine particle size distributions. In conducting the assessment, the sample is passed through a laser beam, which results in laser light scattered at a range of angles. Detectors placed at fixed angles measure the intensity of light scattered at that position. A mathematical model is then applied to generate a particle size distribution. The particle size values reported herein are determined by using a liquid or wet dispersion method.
In particle size determinations, the median value is defined as the value where half of the population resides above this point, and half resides below this point. For particle size distributions the median is called the D50. The D50 is the size that splits the distribution with half above and half below this diameter. The distribution width may also be characterized by citing one, two or three values on the x-axis, typically some combination of the D10, D50, and D90. The D50, the median, has been defined above as the diameter where half of the population lies below this value. Similarly, 90 percent of the distribution lies below the D90, and 10 percent of the population lies below the D10.
A pharmaceutical composition comprising 3% SHR0302 suspended in dimethicone was prepared. The primary particle size distribution of the SHR0302 is characterized by a D10 value of less than about 0.25 μm; a D50 value of less than about 0.7 μm; and a D90 value of less than about 5 μm. The pharmaceutical composition was a transparent solution due to the particles being too small to scatter visible light. A Malvern Metasizer Model 3000 using the Hydro MV dispersion unit was used to determine the particle size distribution profile of SHR0302. […]

Data set [2] concerns the target JAK1 (Homo sapiens, UniProt P23458). Particulars: cited from earlier work.
Data set [3] deals with women with acne. The note with it: orally administered; cited from earlier work.

Sequence of JAK1 (P23458 whole entry, species assumed): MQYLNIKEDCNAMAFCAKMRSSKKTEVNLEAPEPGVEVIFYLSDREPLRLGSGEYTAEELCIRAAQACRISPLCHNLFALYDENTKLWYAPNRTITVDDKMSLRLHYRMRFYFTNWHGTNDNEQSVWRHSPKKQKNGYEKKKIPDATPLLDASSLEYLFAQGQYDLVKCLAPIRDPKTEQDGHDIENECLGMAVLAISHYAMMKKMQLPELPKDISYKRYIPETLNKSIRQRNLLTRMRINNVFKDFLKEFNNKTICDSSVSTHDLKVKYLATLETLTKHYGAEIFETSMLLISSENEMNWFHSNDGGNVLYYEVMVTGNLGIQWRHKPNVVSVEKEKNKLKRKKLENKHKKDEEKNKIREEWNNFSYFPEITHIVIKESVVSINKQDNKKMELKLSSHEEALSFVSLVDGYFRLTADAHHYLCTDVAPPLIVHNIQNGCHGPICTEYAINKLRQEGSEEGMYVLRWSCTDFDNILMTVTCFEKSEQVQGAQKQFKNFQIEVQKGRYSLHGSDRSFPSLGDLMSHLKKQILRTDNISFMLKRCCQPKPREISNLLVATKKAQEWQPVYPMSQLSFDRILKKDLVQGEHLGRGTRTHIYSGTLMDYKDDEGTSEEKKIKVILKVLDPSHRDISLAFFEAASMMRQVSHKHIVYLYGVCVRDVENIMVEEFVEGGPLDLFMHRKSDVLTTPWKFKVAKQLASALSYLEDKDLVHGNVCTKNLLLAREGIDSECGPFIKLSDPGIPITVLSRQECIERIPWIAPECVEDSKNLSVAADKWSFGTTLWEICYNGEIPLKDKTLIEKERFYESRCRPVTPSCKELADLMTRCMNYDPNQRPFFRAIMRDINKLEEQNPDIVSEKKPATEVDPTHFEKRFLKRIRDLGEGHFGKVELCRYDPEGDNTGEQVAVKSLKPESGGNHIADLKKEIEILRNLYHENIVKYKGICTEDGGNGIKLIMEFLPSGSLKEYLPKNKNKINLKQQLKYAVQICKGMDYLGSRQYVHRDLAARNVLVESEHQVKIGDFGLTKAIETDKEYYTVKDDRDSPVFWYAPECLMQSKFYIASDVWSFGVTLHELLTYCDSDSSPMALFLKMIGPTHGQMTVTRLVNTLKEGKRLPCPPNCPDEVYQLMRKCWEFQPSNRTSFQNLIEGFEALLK

In the case of `COc1nsc(NC(=O)N2C[C@H]3C[C@H](N(C)c4ncnc5[nH]ccc45)C[C@H]3C2)n1` [SHR0302, (3aR,5S,6aS)—N-(3-methoxyl-1,2,4-thiadiazol-5-yl)-5-(methyl(7H-pyrrolo[2,3-d]pyrimidin-4-yl)amino)hexahydrocyclopenta[c]pyrrole-2(1H)-carboxamide], in data set [1], the “primary particle size distribution D10 value” is “less than 0.25 μm”, the “primary particle size distribution D50 value” was “less than 0.7 μm” and the “primary particle size distribution D90 value” is “less than 5 μm”. For the same compound, the “selectivity for JAK1 over JAK2” value in data set [2] is given as “high selectively for JAK1 over JAK2”.

`CC(=O)S[C@@H]1CC2=CC(=O)CC[C@]2(C)[C@H]2CC[C@@]3(C)[C@@H](CC[C@@]34CCC(=O)O4)[C@H]12` [spironolactone, 17-hydroxy-7α-mercapto-3-oxo-17α-pregn-4-ene-21-carboxylic acid γ-lactone acetate]: the “efficacy in the treatment of women with acne” value in data set [3] was “efficacious”.
